Test results: patent US5250542A, “Peripherally selective piperidine carboxylate opioid antagonists” (Eli Lilly and Company, priority 1992, dated 1993)
Counter-ions that a name gives are not always drawn. Like-named read-outs stand apart in the source and are kept apart here.

Legend:
opioid receptor = target: T1, opioid receptor (Mus musculus, UniProt P42866); assay: mouse writhing analgesis test: block of morphine-induced analgesia; format: in vivo, CF-1 male mice; design: unit not given here; conditions: dose of antagonist that reduced the inhibition of writhing produced by 1.25 mg/kg morphine sulfate to 50%; subcutaneous, 20 min before acetic acid
T1 construct: Five CF-1 male mice (Charles River, Portage, Mich.); from tissue; host or cells: living CF-1 male mice (in vivo test; endogenous receptor)
T1 sequence (P42866 whole entry): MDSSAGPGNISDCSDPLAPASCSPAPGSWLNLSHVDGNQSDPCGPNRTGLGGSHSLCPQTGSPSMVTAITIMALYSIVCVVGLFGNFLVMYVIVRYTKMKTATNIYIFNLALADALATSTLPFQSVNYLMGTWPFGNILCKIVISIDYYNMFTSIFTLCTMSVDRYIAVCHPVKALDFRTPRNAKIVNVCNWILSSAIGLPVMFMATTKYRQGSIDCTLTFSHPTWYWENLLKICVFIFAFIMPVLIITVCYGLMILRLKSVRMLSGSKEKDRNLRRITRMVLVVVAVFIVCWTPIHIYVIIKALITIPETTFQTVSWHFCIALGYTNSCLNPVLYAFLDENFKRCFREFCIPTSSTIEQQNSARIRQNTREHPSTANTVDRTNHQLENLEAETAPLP
Method: In order to determine in vivo opioid receptor antagonism, the mouse writhing analgesis test was used. Test compounds were measured for their ability to block morphine-induced analgesia.
Five CF-1 male mice (Charles River, Portage, Mich.), weighing approximately 20 g after being fasted overnight, were observed simultaneously for the writhing response. The writhing response was defined as a contraction of the abdominal musculature, followed by the extension of the hind limbs, and was induced by the intraperitoneal adminstration of 0.6% acetic acid in a volumne of 1 ml/100 g body weight. The observation period was 10 min. in duration, beginning 5 min. after injection of acetic acid. The percent inhibition of writhing was calculated from the average number of writhes in the control (non-drug) group. Each data point is the mean (±standarderror) for five mice. The ED50 was defined as the dose of agonist that inhibited mean writhing by 50%. […] Each mouse was only used once. All drugs were administered subcutaneously (1 ml/100 g bwt) 20 min. before the injection of acetic acid.

[1] = target: T2, peripheral opioid receptors (Mus musculus, UniProt P42866); assay: precipitated diarrhea in morphine-maintained mice (peripheral opioid activity) and comparison with the writhing test; format: in vivo; conditions: for Ratio (AD50 mouse writhing test / ED50 mouse diarrhea test): higher ratio = greater relative antagonism of peripheral opioid receptors; for ED50: mouse, 0.5 h, morphine-maintained mice, antagonist subcutaneous or oral, 30 min observation
T2 construct: Mice maintained (6 mice/cage) on 0.01M saccharin water with 1 g/1 morphine sulfate; from tissue; host or cells: living morphine-maintained mice (in vivo test; endogenous receptor)
T2 sequence (P42866 whole entry): as above
Method: Determinations of peripheral opioid activity were conducted. Mice maintained (6 mice/cage) on 0.01M saccharin water with 1 g/1 morphine sulfate for a minimum of 10 days with mice averaging 3.0^+ g water/mouse/day for at least three days are used as subjects. The morphine water was removed 45 min. prior to injection with the proposed opioid antagonist. Initial testing consisted of 5 mice/dose of compound. The antagonist was given by the subcutaneous or oral, route of administration,and the mice were placed in 11-14"×4 7/12 I.D. clear plastic cylinders with white paper towels used for a floor.
The mice were then monitored visually for 30 minutes post-injection for the presence of jumping and of diarrhea. Jumping was scored as positive if at least one jump occurred in 30 min. Diarrhea was scored as positive when feces were moist enough to stain the white paper at the base of the cylinder. After 30 minutes of testing, the mice were placed back in original cages, put back on morphine water, and not tested again for 48 hrs. Lower doses of the antagonist compounds were tested until threshold doses for diarrhea were determined. Diarrhea is a peripherally mediated sign of precipitated opiate abstinence.
The extent of the effect on peripheral activity compared to central activity of the present compounds can-be determined by comparing the AD50 for the mouse writhing test with the ED50 for the mouse diarrhea test. The higher the ratio, the greater the relative antagonism of the peripheral opioid receptors by a particular compound.

mu receptor = target: T3, mu receptor (Rattus norvegicus, UniProt P33535); assay: opioid receptor binding assay, [3H] NAL (tritiated naloxone), mu receptor; design: species or system rat (Male Sprague Dawley), brain minus cerebellum; conditions: for inhibition at 0.01 µM / inhibition at 0.1 µM: 20 min
T3 construct: rat whole brain minus cerebellum for mu was homogenized; from tissue; host or cells: brain of male Sprague Dawley rats, whole brain minus cerebellum, homogenate fraction
T3 sequence (P33535 whole entry): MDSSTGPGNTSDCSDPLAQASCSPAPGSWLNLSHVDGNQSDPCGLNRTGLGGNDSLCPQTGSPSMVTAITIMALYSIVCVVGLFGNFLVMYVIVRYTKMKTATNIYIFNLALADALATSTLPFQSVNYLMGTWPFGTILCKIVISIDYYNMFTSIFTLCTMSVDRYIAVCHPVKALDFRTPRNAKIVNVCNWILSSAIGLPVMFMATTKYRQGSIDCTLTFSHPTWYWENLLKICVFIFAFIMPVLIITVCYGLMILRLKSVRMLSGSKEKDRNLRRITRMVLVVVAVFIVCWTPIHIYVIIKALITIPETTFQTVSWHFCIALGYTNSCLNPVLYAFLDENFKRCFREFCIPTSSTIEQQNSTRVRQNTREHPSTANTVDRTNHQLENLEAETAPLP
Method: This assay was conducted by the following procedure.
Male Sprague Dawley rats for mu site experiments were sacrificed via decapitation and the brains were removed. The brain tissue, rat whole brain minus cerebellum for mu was homogenized in a Teflon and glass tissue homogenizer. A supernatant I, pellet IV, fraction was frozen in a nitrogen freezer at 1.33 g/ml concentration and stored for not longer than five weeks prior to use. Pellets were rehydrated with physiological buffer prior to use.
The reaction was initiated by the addition of the resuspended tissue which had been preincubated at 37° C. for 20 minutes. The reaction mixture was incubated in a 37° C. water bath for 20 minutes. The reaction was terminated by rapid filtration, (Brandel Cell Harvestor), through Whatman GF/B glass filters that had been presoaked in Krebs-Hepes buffer pH 7.4. The filters were then washed 2x with 5 ml of ice cold Krebs-Hepes buffer pH 7.4. Washed filters were placed in scintillation vials and 10 ml RedySolv, (Brandel), was added and samples counted in a Searle D-300 beta counter. Means and standard error statistics were calculated for triplicate experimental determinations in certain cases. The incubation time for the reaction mixture was 20 minutes at 37° C.
Ki values were calculated using a minitab statistical program according to the following formula: [formula] wherein IC50 is the concentration at which 50% of the ^3 H ligand is displaced by the test compounds and KD is the dissociation constant for the ^3 H ligand at the receptor site. KD can be determined as described by Bennett, "Methods in Binding Studies", Neurotransmitter Receptor Binding, Yamamura, et al., ed., p. 57-90, Raven Press, N.Y. (1978) incorporated herein by reference.
In the Table, column 1 sets forth the Example Number of the compound evaluated, column 2 the Ki value in nanomolar (nM) at the mu receptor and columns 3 and 4 the percent displacement by the test compound at the indicated concentration, i.e., 10 nm or 100 nm.

[2] = read-out: % displacement at 10 nM, 10 nM test compound, [3H] naloxone 0.5 nM
[3] = read-out: % displacement at 100 nM, 100 nM test compound, [3H] naloxone 0.5 nM
[4] = read-out: % displacement at 100 nM

Compound	AD50 (opioid receptor)	Ratio (AD50 mouse writhing test / ED50 mouse diarrhea test) [1]	ED50 [1] [mg/kg]	Ki (mu receptor) [nM]	inhibition at 0.01 µM (mu receptor; [2]) [%]	inhibition at 0.1 µM (mu receptor; [3]) [%]	inhibition at 0.1 µM (mu receptor; [4]) [%]	inhibition at 0.01 µM (mu receptor; 10 nM test compound, [3H] naloxone 0.5 nM, read-out: % displacement at 10 nM) [%]	inhibition at 0.1 µM (mu receptor; 100 nM test compound, [3H] naloxone 0.5 nM, read-out: % displacement at 100 nM) [%]
C[C@H]1CN(CCC(C(=O)NCCCC(=O)O)C2CCCCC2)CC[C@@]1(C)c1cccc(O)c1 (relative stereo) [Example 28, 4-[[2-cyclohexyl-4-[4-(3-hydroxyphenyl)-3,4-dimethyl-1-piperidinyl]-1-oxobutyl]amino]-butanoic acid monohydrate]	> 40	> 4000	0.01	3.09	86	95	–	–	–
CCOC(=O)CNC(=O)C(CC1CCCCC1)CN1CC[C@@](C)(c2cccc(O)c2)[C@@H](C)C1 (relative stereo) [Example 29, 2-[[3-[4-(3-hydroxyphenyl-3,4-dimethyl-1-piperidinyl]-2-cyclohexylmethyl-1-oxopropyl]amino]acetic acid ethyl estermonohydrochloride]	3.9	23	0.17	2.94	98	100	–	–	–
C[C@H]1CN(CC(CC2CCCCC2)C(=O)NCC(=O)O)CC[C@@]1(C)c1cccc(O)c1 (relative stereo) [Example 30, 2-[[3-[4-(3-hydroxyphenyl)-3,4-dimethyl-1-piperidinyl]-2-(cyclohexylmethyl)-1-oxopropyl]-amino]acetic acid monohydrate]	> 40	> 2353	0.017	0.42	89	93	–	–	–
CCNC(=O)CNC(=O)C(CC1CCCCC1)CN1CC[C@@](C)(c2cccc(O)c2)[C@@H](C)C1 (relative stereo) [Example 31, N-ethyl-2-[[3-[4-(3-hydroxyphenyl)-3,4-dimethyl-1-piperidinyl]-2-(cyclohexylmethyl)-1-oxo-propyl]amino]acetamide monohydrochloride monohydrate]	5.3	38	0.14	0.4	100	–	97	–	–
CNC(=O)CNC(=O)C(CC1CCCCC1)CN1CC[C@@](C)(c2cccc(O)c2)[C@@H](C)C1 (relative stereo) [Example 32, N-[2-methylamino-2-oxoethyl]-3-[4-(3-hydroxphenyl)-3,4-dimethyl(-1-piperidinyl]-2-cyclohexylmethylpropanamidemonohydrochloride]	7.3	45	0.16	0.72	97	100	–	–	–
C[C@H]1CN(CC(CC2CCCCC2)C(=O)NCC(N)=O)CC[C@@]1(C)c1cccc(O)c1 (relative stereo) [Example 33, 2-[[3-[4-(3-hydroxyphenyl)-3,4-dimethyl-1-piperidinyl]-2-(cyclohexylmethyl)-1-oxophenyl]amino]acetamide monohydrochloride]	10.2	60	0.17	1.19	95	100	–	–	–
C[C@H]1CN(CC(CC2CCCCC2)C(=O)NCCC(=O)OCc2ccccc2)CC[C@@]1(C)c1cccc(O)c1 (relative stereo) [Example 34, 3-[[2-(cyclohexylmethyl)-1-oxo-3-[4-(3-hydroxyphenyl)-3,4-dimethyl-1-piperidinyl]propyl]-amino]propanoic acid phenylmethyl ester monohydrochloride]	15.1	84	0.18	36.6	78	–	97	–	–
C[C@H]1CN(CC(Cc2ccccc2)C(=O)N(C)CC(=O)O)CC[C@@]1(C)c1cccc(O)c1 (relative stereo) [Example 66, [[2-[[4-(3-hydroxyphenyl)-3,4-dimethyl-1-piperidinyl]methyl]-1-oxo-3-phenylpropyl]-methylamino]acetic acid monohydrate]	14.0	< 4.7	< 3	1.96	70	85	–	–	–
CCOC(=O)CNC(=O)CNC(=O)C(Cc1ccccc1)CN1CC[C@@](C)(c2cccc(O)c2)[C@@H](C)C1 (relative stereo) [Example 67, [[2-[2-[4-(3-hydroxyphenyl)-3,4-dimethyl-1-piperidinyl]methyl]-3-phenyl-1-oxopropyl]-amino]acetyl]amino]acetic acid ethyl ester monohydrochloride]	5.5	36	0.15	0.37	79	91	–	–	–
C[C@H]1CN(CC(Cc2ccccc2)C(=O)NCC(=O)NCC(=O)O)CC[C@@]1(C)c1cccc(O)c1 (relative stereo) [Example 68, N-(carboxylmethyl-)-2-[[3-[4-(3-hydroxyphenyl)-3,4-dimethyl-1-piperidinyl]-2-(phenylmethyl)-1-oxopropyl]amino]acetamide monohydrate]	> 40	> 174	0.23	1.51	79	86	–	–	–
C[C@H]1CN(CC(Cc2ccccc2)C(=O)NCCN(C)C)CC[C@@]1(C)c1cccc(O)c1 (relative stereo) [Example 69, N-[2-(dimethylamino)ethyl]-3-[4-(3-hydroxyphenyl)-3,4-dimethyl-1-piperidine]-2-phenylmethylpropanamide dihydrochloride]	30	51	1.7	–	–	–	–	57	89
CCc1noc(CNC(=O)C(Cc2ccccc2)CN2CC[C@@](C)(c3cccc(O)c3)[C@@H](C)C2)n1 (relative stereo) [Example 71, 3-[4-(3-hydroxyphenyl)-3,4-dimethyl1-piperidinyl]-2-(phenylmethyl)-N-[(3-ethyl-1,2,4-oxadiazol-5-yl)methyl]propanamide]	2.1	11	0.19	0.71	81	–	94	–	–
